Data set [1] deals with alpha-1 adrenergic receptor. Description: alpha-1 adrenergic receptor radioligand binding assay ([125I]-HEAT, rat cerebral cortex membranes). The following applies: for IC50: [125I]-HEAT 40 pM, 37° C. for 60 min, read-out: IC50 (inhibition of binding of the alpha-1 adrenergic receptor). As for the experimental part:
Cerebral cortices from male Sprague-Dawley rats (175-200 g) are dissected and homogenised in 10 volumes of ice cold 0.32 M sucrose (containing 1 mM MgCl2 dihydrate and 1 mM K2HPO4) with a glass/teflon homogeniser. The membranes are centrifuged at 1000×g for 15 min., the pellet discarded and the centrifugation repeated. The supernatants are pooled and centrifuged at 18,000×g for 15 min. The pellet is osmotically shocked in 10 volumes of water and kept on ice for 30 min. The suspension is centrifuged at 39,000×g for 20 min., resuspended in Krebs-Henseleit buffer pH 7.4 (1.17 mM MgSO4 anhydrous, 4.69 mM KCl, 0.7 mM K2HPO4 anhydrous, 0.11M NaCl, 11 mM D-glucose and 25 mM NaHCO3) containing 20 mM Tris, and kept for 2 days at −20° C. The membranes are then thawed at 20-23° C., washed three times with Krebs-Henseleit buffer by centrifugation at 18,000×g for 15 min., left overnight at 4° C. and washed again three times. The final pellet is resuspended with a glass/teflon homogeniser in 125 mL/100 membranes in the same buffer. A sample is taken to determine the protein concentration (using the Bradford Assay with gamma globulin as the standard) and the remainder aliquoted and stored at −80° C.
The resulting membranes are subjected to a radioligand binding assay. […] The plates are incubated at 37° C. for 60 min., after which rapid vacuum filtration over Whatman GF/C 96 well filter plates is carried out. Each plate is then washed three times with 10 ml of ice cold assay buffer using a Brandel Cell harvester (Gaithersburg, Md.). Following drying of the plates for 3 h. at 50° C., 40 μL of Microscint 20 is added to each well, the plates incubated at room temperature for a further 20 min. and the retained radioactivity quantified in a Packard Topcount NXT scintillation counter.
Stock solutions of test compounds are dissolved initially in 100% DMSO and diluted with assay buffer to the required concentrations to yield 1% (v/v) DMSO.

The target in a further data set is T1, human CCR-3 (Homo sapiens, UniProt P51677).
T1 construct: expressed in transfected cells; host or cells: rat basophil leukemia (RBL-2H3) cells
T1 sequence (P51677 1-355): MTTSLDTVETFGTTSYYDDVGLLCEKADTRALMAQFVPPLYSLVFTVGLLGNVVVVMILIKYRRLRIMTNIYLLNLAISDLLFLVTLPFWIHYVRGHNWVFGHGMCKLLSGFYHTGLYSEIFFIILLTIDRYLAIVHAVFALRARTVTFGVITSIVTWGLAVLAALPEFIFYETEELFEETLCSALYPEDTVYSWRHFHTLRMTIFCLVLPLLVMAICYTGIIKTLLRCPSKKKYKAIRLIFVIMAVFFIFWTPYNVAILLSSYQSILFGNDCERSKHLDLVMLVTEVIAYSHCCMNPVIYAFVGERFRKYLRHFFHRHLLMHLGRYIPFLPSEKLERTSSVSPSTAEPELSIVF
The data set is described as follows: CCR-3 Binding Assay (SPA, [125I]-human eotaxin). As to conditions: membranes of RBL-2H3 cells stably expressing CCR3; 50 pM [125I]-human eotaxin; 4 hours at room temperature; read-out: IC50 (inhibition of binding of human eotaxin to human CCR-3). As for the experimental part:
In this assay the effect of agents of the invention on the binding of human eotaxin to human CCR-3 is determined. Recombinant cells expressing human CCR-3 are captured by wheatgerm agglutinin (WGA) polyvinyltoluidene (PVT) SPA beads (available from Amersham), through a specific interaction between the WGA and carbohydrate residues of glycoproteins on the surface of the cells. [^125I]-human eotaxin (available from Amersham) binds specifically to CCR-3 receptors bringing the [^125I]-human eotaxin in close proximity to the SPA beads. Emitted â-particles from the [^125I]-human eotaxin excite, by its proximity, the fluorophore in the beads and produce light.
Preparation of Assay Buffer: 5.96 g HEPES and 7.0 g sodium chloride are dissolved in distilled water and 1M aqueous CaCl2 (1 mL) and 1M aqueous MgCl2 (5 mL) are added. The pH is adjusted to 7.6 with NaOH and the solution made to a final volume of 1 L using distilled water. 5 g bovine serum albumin and 0.1 g sodium azide are then dissolved in the solution and the resulting buffer stored at 4° C. A Complete™ protease inhibitor cocktail tablet (available from Boehringer) is added per 50 mL of the buffer on the day of use.
Preparation of Homogenisation Buffer: Tris-base (2.42 g) is dissolved in distilled water, the pH of the solution is adjusted to 7.6 with hydrochloric acid and the solution is diluted with distilled water to a final volume of 1L. The resulting buffer is stored at 4° C. A Complete™ protease inhibitor cocktail tablet is added per 50 mL of the buffer on the day of use.
Preparation of membranes: Confluent rat basophil leukemia (RBL-2H3) cells stably expressing CCR3 are removed from tissue culture flasks using enzyme-free cell dissociation buffer and resuspended in phosphate-buffered saline. The cells are centrifuged (800 g, 5 minutes), the pellet resuspended in ice-cold homogenisation buffer using 1 mL homogenisation buffer per gram of cells and incubated on ice for 30 minutes. The cells are homogenised on ice with 10 strokes in a glass mortar and pestle. The homogenate is centrifuged (800 g, 5 minutes, 4° C.), the supernatant further centrifuged (48,000 g, 30 minutes, 4° C.) and the pellet redissolved in Homogenisation Buffer containing 10% (v/v) glycerol. The protein content of the membrane preparation is estimated by the method of Bradford (Anal.Biochem. (1976) 72:248) and aliquots are snap frozen and stored at −80° C. The assay is performed in a final volume of 250 μL per well of an Optiplate (ex Canberra Packard). To selected wells of the Optiplate are added 50 μL of solutions of a test compound in Assay Buffer containing 5% DMSO (concentrations from 0.1 nM to 10 μM). To determine total binding, 50 μL of the Assay Buffer containing 5% DMSO is added to other selected wells. To determine non-specific binding, 50 μL of 100 nM human eotaxin (ex R&D Systems) in Assay Buffer containing 5% DMSO is added to further selected wells. To all wells are added 50 μL [^125I]-Human eotaxin (ex Amersham) in Assay Buffer containing 5% DMSO at a concentration of 250 pM (to give a final concentration of 50 pM per well), 50 μL of WGA-PVT SPA beads in Assay Buffer (to give a final concentration of 1.0 mg beads per well) and 100 μL of the membrane preparation at a concentration of 100 μg protein in Assay Buffer (to give a final concentration of 10 μg protein per well). The plate is then incubated for 4 hours at room temperature. The plate is sealed using TopSeal-S (ex Canberra Packard) according to the manufacturer's instructions. The resulting scintillations are counted using a Canberra Packard TopCount, each well being counted for 1 minute. The concentration of test compound at which 50% inhibition occurs (IC50) is determined from concentration-inhibition curves in a conventional manner.

Consider `N#Cc1cccc(/C=C/C(=O)NCCN2CCC(C(=O)c3ccc(F)cc3)CC2)c1` [Example 1], for which the IC50 (usually the point on the concentration scale where inhibition reaches its midpoint) in data set [1] stood at 210 nM; at human CCR-3, 125 nM. For `N#Cc1cccc(/C=C/C(=O)N[C@H](Cc2ccccc2)CN2CCC(C(=O)c3ccc(F)cc3)CC2)c1` [Example 2, (E)-N-{(R)-1-Benzyl-2-[4-(4-fluoro-benzoyl)-piperidin-1-yl]-ethyl}-3-(3-cyano-phenyl)-acrylamide], in that order: 221 nM and 68 nM.

In the case of `CCOc1ccc(Br)cc1/C=C/C(=O)N[C@H](Cc1ccccc1)CN1CCC(C(=O)c2ccc(F)cc2)CC1` [Example 4], the IC50 in data set [1] stood at 94 nM; on human CCR-3, 13 nM. Take `COc1ccc(Br)cc1/C=C/C(=O)NCCN1CCC(C(=O)c2ccc(F)cc2)CC1` [Example 7]: the IC50 in data set [1] was found to be 48 nM; on human CCR-3 it was 15 nM. In the case of `COc1ccc(Br)cc1/C=C/C(=O)N[C@H](Cc1cccnc1)CN1CCC(C(=O)c2ccc(F)cc2)CC1` [Example 9], the concentration for half-maximal inhibition (IC50) stood at 58 nM in data set [1] and 5 nM on human CCR-3. For `COc1ccc(Br)cc1/C=C/C(=O)NCCN1CCC(C(=O)c2ccc(Cl)cc2)CC1` [Example 13, (E)-3-(5-Bromo-2-methoxy-phenyl)-N-{2-[4-(4-chloro-benzoyl)-piperidin-1-yl]-ethyl}-acrylamide], the IC50 was determined as 53 nM in data set [1] and 26 nM at human CCR-3. `CC(C)Oc1ccc(Br)cc1/C=C/C(=O)NCCN1CCC(C(=O)c2ccc(F)cc2)CC1` [Example 20]: the figures for the IC50 (in data set [1]; at human CCR-3) were 89 nM and 8 nM, respectively. Consider `N#Cc1cccc(/C=C/C(=O)N[C@H](Cc2ccco2)CN2CCC(C(=O)c3ccc(F)cc3)CC2)c1` [Example 23], for which the IC50 was 131 nM in data set [1] and 10 nM on human CCR-3.

For `COc1ccc(Br)cc1/C=C/C(=O)N[C@H](CO)CN1CCC(C(=O)c2ccc(F)cc2)CC1` [Example 25], the IC50 came out at 387 nM in data set [1] and 11 nM on human CCR-3. For the compound `COc1ccc(C#N)cc1/C=C/C(=O)N[C@H](Cc1ccco1)CN1CCC(C(=O)c2ccc(F)cc2)CC1` [Example 28], the IC50 in data set [1] amounted to 72 nM; on human CCR-3 it was 2 nM.

With `COc1ccc(C#N)cc1/C=C/C(=O)N[C@H](Cc1cnc[nH]1)CN1CCC(C(=O)c2ccc(F)cc2)CC1` [Example 30], the IC50 in data set [1] turned out to be 121 nM; on human CCR-3, 13 nM. For the compound `COc1ccc(C#N)cc1/C=C/C(=O)N[C@H](CO)CN1CCC(C(=O)c2ccc(Cl)cc2)CC1` [Example 38, (E)-N-{(S)-2-[4-(4-chloro-benzoyl)-piperidin-1-yl]-1-hydroxymethyl-ethyl}-3-(5-cyano-2-methoxy-phenyl)-acrylamide], the results for the half-inhibitory concentration (IC50) (in data set [1]; at human CCR-3) were 1520 nM and 14 nM, respectively.

As for `COc1ccc(Cl)cc1/C=C/C(=O)N[C@H](CO)CN1CCC(C(=O)c2ccc(Cl)cc2)CC1` [Example 40], the IC50 in data set [1] is 215 nM; at human CCR-3, 6 nM. With `COc1ccc(Br)cc1/C=C/C(=O)N[C@H](CO)CN1CCC(C(=O)c2ccc(Cl)cc2)CC1` [Example 43], the IC50 in data set [1] was 356 nM; at human CCR-3, 22 nM. On to `COc1ccc(C#N)cc1/C=C/C(=O)N[C@H](Cc1ccncc1)CN1CCC(C(=O)c2ccc(F)cc2)CC1` [Example 44], for which the IC50 in data set [1] stood at 331 nM; at human CCR-3 it was 25 nM. As for `COc1ccc(C#N)cc1/C=C/C(=O)N[C@H](CO)CN1CCC(C(=O)c2ccc(Cl)cc2)CC1` [Example 47, (E)-N-{(S)-1-[4-(4-Chloro-benzoyl)-piperidin-1-ylmethyl]-2-hydroxy-ethyl}-3-(5-cyano-2-methoxy-phenyl)-acrylamide], the melting point (commonly the temperature, or range, at which the solid turns liquid) lay in the range of 162 to 163 °C. `O=C1c2ccccc2CCC1CNCCc1ccc(O)c(I)c1` (centres unmarked) [[^125I]-HEAT, reference compound]: the Kd (in general, the concentration at which binding is half-saturated) in data set [1] is 0.0589 ± 0.0187 nM.

The record behind these values is US6670379B2, “Piperidine compounds for use as ccr-3 inhibitors” (Novartis AG, priority 2000, dated 2003).
